The text below walks through data of patent publication US10604529B2, “Fused imidazole compound having indoleamine 2,3-dioxygenase inhibitory activity” (SHENZHEN CHIPSCREEN BIOSCIENCES CO., LTD., priority 2016, dated 2020).

For test [1], the target named is T1, Recombinant human IDO enzyme (IDO1 enzyme) (Homo sapiens, UniProt P14902).
T1 construct: purchased BPS Bioscience, USA
Kind of test: In vitro IDO enzymatic activity assay (kynurenine colour reaction, 492 nm). Type of test: biochemical. The settings on record: tested compound concentration 200 nM; recombinant human IDO1; read-out: IDO Enzymatic Inhibition Rate (%) (200 nM). The procedure:
The basic principle of the in vitro IDO enzymatic activity detection is to use the IDO enzyme to metabolize the substrate L-tryptophan to produce the product kynurenine in an in vitro enzyme-catalyzed reaction system. The kynurenine is yellow in color reaction with p-dimethylaminobenzaldehyde in glacial acetic acid, and the absorbance value was measured at 492 nm on a microplate reader. The concentration of the product kynurenine in the sample is calculated by comparison to a standard curve of kynurenine with a known concentration.
Recombinant human IDO enzyme (IDO1 enzyme) was purchased from BPS Bioscience, USA.
(3) Control reactions were set up at the same time the detection reaction was carried out. including 0 inhibition positive control with no tested compound added and 0 enzyme negative control with no enzyme added. All tests were run in duplicate.
(4) After the enzymatic reaction was completed, 40 μl of a pre-formulated 30% (w/v) trichloroacetic acid solution was added, and reacted at 65° C. for 20 minutes, followed by centrifugation at 12,000 rpm for 15 minutes.
(5) 100 μl of the supernatant after centrifugation was pipetted and added to a 96-well plate. An equal volume of 2% p-dimethylaminobenzaldehyde in glacial acetic acid was added, well mixed, and allowed to stand at room temperature for 10 minutes.
(6) A microplate reader (ELX800NB) was used to detect the color signal of each well with a detection wavelength of 492 nm.
In addition, the enzymatic inhibition rates were calculated for the tested compounds of different concentration gradients, and then the enzymatic half maximal inhibitory concentration (IC50) was calculated using the IC50 calculator.
According to the above-mentioned method of experiment, the compound of the present disclosure was subjected to an in vitro IDO enzymatic IC50 assay using NLG919 as a positive control compound.

Test [2] addresses T2, IFN-γ-induced IDO enzyme in HeLa cells (Homo sapiens, UniProt P14902).
T2 construct: HeLa cells are human cervical cancer cell lines and can up-regulate the expression of endogenous IDO enzymes; endogenous in cells; host or cells: HeLa cells stimulated with human IFN-γ
In words: Detection of IDO inhibitory activity at the cellular level (IFN-γ-induced HeLa cells). The settings on record: tested compound 1 μM, human IFN-γ 50 ng/ml, 48 hours, read-out: IDO Inhibitory Rate (%) (1 μM). Type of test: cell-based. The text has this: In the present disclosure, IFN-γ-induced IDO enzyme expression in HeLa cells were used as a model to detect the IDO enzymatic inhibitory activity of the compound at the cellular level. HeLa cells are human cervical cancer cell lines and can up-regulate the expression of endogenous IDO enzymes under the induction of human IFN-γ. The cell supernatant can be subjected to detection of the enzyme-catalyzed product kynurenine by adding the substrate L-tryptophan to the cell culture solution. […] Recombinant human IFN-γ cytokine purchased from Sangon Biotech, Phenol red-free DMEM for cell culture purchased from Gibco. […] The cells were further cultured for 48 hours and detected. (2) 200 μl of the supernatant from the culture well was pipetted, 40 μl of a pre-formulated 30% (w/v) trichloroacetic acid solution was added, allowed to react at 65° C. for 20 minutes, and then centrifuged at 12,000 rpm for 15 minutes. (3) 100 μl of the supernatant after centrifugation was pipetted and added into a 96-well plate, an equal volume of 2% p-dimethylaminobenzaldehyde in glacial acetic acid was added, and they were mixed well and allowed to stand at room temperature for 10 minutes. (4) A microplate reader (ELX800NB) was used to detect the color signal of each well, and the detection wavelength was 492 nm.

T2 sequence (P14902 whole entry): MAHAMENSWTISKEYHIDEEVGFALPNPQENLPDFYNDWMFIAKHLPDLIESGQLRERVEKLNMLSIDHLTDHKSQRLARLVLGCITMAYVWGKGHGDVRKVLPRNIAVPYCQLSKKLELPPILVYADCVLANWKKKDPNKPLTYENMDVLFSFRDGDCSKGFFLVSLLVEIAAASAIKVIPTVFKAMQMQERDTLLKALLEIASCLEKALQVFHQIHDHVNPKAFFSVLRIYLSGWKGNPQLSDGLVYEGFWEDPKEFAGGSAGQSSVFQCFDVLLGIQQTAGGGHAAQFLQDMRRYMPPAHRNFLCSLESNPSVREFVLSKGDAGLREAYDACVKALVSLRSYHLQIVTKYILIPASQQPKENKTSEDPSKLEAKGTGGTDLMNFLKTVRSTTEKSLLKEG
T1 sequence (P14902 whole entry): as above

`CN(CC(=O)N1CCC(C(O)CC2c3ccccc3-c3cncn32)CC1)c1ccc(C(F)(F)F)cc1` (stereo not drawn) [Example 89, 1-(4-(1-hydroxy-2-(5H-imidazo[5,1-a]isoindol-5-yl)ethyl)piperidin-1-yl)-2-(methyl(4-trifluoromethylphenyl)amino)ethyl-1-one]: the inhibition at 0.2 µM in test [1] stood at 68%. Besides, in test [2], the inhibition at 1 µM was 85%.

For the compound `CN(CC(=O)N1CCC(C(O)CC2c3ccccc3-c3cncn32)CC1)c1cccc(C(F)(F)F)c1` (stereo not drawn) [Example 94, 1-(4-(1-hydroxy-2-(5H-imidazo[5,1-a]isoindol-5-yl)ethyl)piperidin-1-yl)-2-(methyl(3-trifluoromethylphenyl)amino)ethyl-1-one], in test [1], the inhibition at 0.2 µM worked out at 84%. Further, the inhibition at 1 µM in test [2] amounted to 98%.

With `CN(CC(=O)N1CCC(C(O)CC2c3ccccc3-c3cncn32)CC1)c1ccc(C#N)cc1` (stereo not drawn) [Example 98], the inhibition at 0.2 µM in test [1] amounted to 81%. For the same compound, in test [2], the inhibition at 1 µM stood at 83%.

Turning to `COc1cccc(N(C)CC(=O)N2CCC(C(O)CC3c4ccccc4-c4cncn43)CC2)c1` (stereo not drawn) [Example 102, 2-((3-methoxyphenyl)(methyl)amino)-1-(4-(1-hydroxy-2-(5H-imidazo[5,1-a]isoindol-5-yl)ethyl)piperidin-1-yl)ethyl-1-one], in test [1], the inhibition at 0.2 µM is 85%. Besides, the inhibition at 1 µM in test [2] is 95%.

For the compound `CN(CC(=O)N1CCC(C(O)CC2c3ccccc3-c3cncn32)CC1)c1ccc([N+](=O)[O-])cc1` (stereo not drawn) [Example 105, 1-(4-(1-hydroxy-2-(5H-imidazo[5,1-a]isoindol-5-yl)ethyl)piperidin-1-yl)-2-(methyl(4-nitrophenyl)atnino)ethyl-1-one], the inhibition at 0.2 µM in test [1] worked out at 84%. Besides, the inhibition at 1 µM in test [2] amounted to 91%.

On to `CN(CC(=O)N1CCC(C(O)CC2c3ccccc3-c3cncn32)CC1)c1ccc2ncccc2c1` (stereo not drawn) [Example 113, 1-(4-(1-hydroxy-2-(5H-imidazo[5,1-a]isoindol-5-yl)ethyl)piperidin-1-yl)-2-(methyl(quinolin-6-yl)amino)ethyl-1-one], for which the inhibition at 0.2 µM in test [1] came to 75%. Moreover, the inhibition at 1 µM in test [2] amounted to 74%.
